Measurements: US20230270113A1, “FUNGICIDAL MIXTURES” (Adama Makhteshim Ltd., priority 2020, published 2023)
Read-outs that look alike come from different tables or passages of the source.

What was measured:
Assay type in all cases: in vivo
Venturia inaequalis [1] = experiment: Example A: greenhouse control of apple scab, phthalimides with DMI and/or fluopyram; settings: for % control observed on leaves 26 DAYS after the application / % control observed on leaves 19 DAYS after the application: captan or folpet 1200, difenoconazole 75, tebuconazole 150, fluopyram 150 gAI/ha; for Var % (19/26 DAYS): change of % control from 19 to 26 days
Venturia inaequalis [2] = experiment: Example 1b: greenhouse control of apple scab, reduced rates of phthalimides and difenoconazole; settings: for % control observed on leaves 26 DAYS after the application / % control observed on leaves 19 DAYS after the application: captan or folpet 900, difenoconazole 35, tebuconazole 150, fluopyram 150 gAI/ha; for Var % (19/26 DAYS): change of % control from 19 to 26 days
[3] = system: Zymoseptoria tritici Tri-R6 strain; settings: for effect of FOLPET on the efficacy of the systemic product, treated area / effect of FOLPET on the efficacy of the systemic product, untreated area / effect of FOLPET on the efficacy of the systemic product, treated and untreated areas: with FOLPET vs use alone; for effect of FOLPET on the efficacy of the systemic product, treated and untreated areas: 21 and 28 days
Alternaria solani [4] = experiment: Example 4: greenhouse control of Alternaria solani in tomato seedlings, phthalimides with DMI and/or fluxapyroxad; settings: Table 9; captan or folpet 1200, difenoconazole 75, tebuconazole 150, fluxapyroxad 75 gAI/ha; one spray 1 day before inoculation
Botrytis cinerea = experiment: Example 11: greenhouse control of Botrytis cinerea in strawberry
Plasmopara viticola = experiment: Example 7: greenhouse control of Plasmopara viticola in grape plants, folpet with partners
Alternaria solani [5] = experiment: Example 5: greenhouse control of Alternaria solani in tomato, phthalimides with azoxystrobin and/or fluxapyroxad
Erysiphe necator = experiment: Example 9: greenhouse control of Erysiphe necator in grape plants
Protocol: • An experiment was conducted in controlled conditions under a greenhouse to evaluate the fungicidal activity of the mixture comprising (1) phthalimide fungicide (folpet, captan) and (2) demethylation inhibitor fungicide (difenoconazole) or a quinone outside inhibitors (azoxystrobin, pyraclostrobin), toward Erysiphe necator in grape plants, variety Barbera. In addition, the activity of phthalimide with two fungicides (A); demethylation inhibitor fungicide (difenoconazole) or a quinone outside inhibitors (azoxystrobin, pyraclostrobin and dehydrogenase inhibitor fungicide (fluxapyroxad) was also tested. • The experiment was conducted by applying compositions of fluxapyroxad, difenoconazole (Score® 10 WG), azoxystrobin (Ortiva®), pyraclostrobin (Cabrio® EC) and folpet (Folpan 80 WDG®) alone or together. The compositions were diluted with water. Water amount used was equivalent to 800 L/ha. Application was performed in an automatic spraying cabin equipped with 2 flatfan AI11003VS nozzles. • Treatments: • Folpet 1000 gr (A.I.)/ha • Fluxapyroxad 45 gr (A.I.)/ha • Difenoconazole 37.5 gr (A.I.)/ha • Difenoconazole 37.5 gr (A.I.)/ha+folpet 1000 gr (A.I.)/ha • Azoxystrobin 90 gr (A.I.)/ha • Azoxystrobin 90 gr (A.I.)/ha+folpet 1000 gr (A.I.)/ha • Pyraclostrobin 75 gr (A.I.)/ha • Pyraclostrobin 75 gr (A.I.)/ha+folpet 1000 gr (A.I.)/ha • Fluxapyroxad 45 gr (A.I.)/ha+Difenoconazole 37.5 gr (A.I.)/ha • Fluxapyroxad 45 gr (A.I.)/ha+Difenoconazole 37.5 gr (A.I.)/ha+folpet 1000 gr (A.I.)/ha • Azoxystrobin 90 gr (A.I.)/ha+Fluxapyroxad 45 gr (A.I.)/ha • Azoxystrobin 90 gr (A.I.)/ha+Fluxapyroxad 45 gr (A.I.)/ha+folpet 1000 gr (A.I.)/ha • Azoxystrobin 90 gr (A.I.)/ha+Difenoconazole 37.5 gr (A.I.)/ha • Azoxystrobin 90 gr (A.I.)/ha+Difenoconazole 37.5 gr (A.I.)/ha+folpet 1000 gr (A.I.)/ha • Pyraclostrobin 75 gr (A.I.)/ha+Fluxapyroxad 45 gr (A.I.)/ha • Pyraclostrobin 75 gr (A.I.)/ha+Fluxapyroxad 45 gr (A.I.)/ha+folpet 1000 gr (A.I.)/ha • Pyraclostrobin 75 gr (A.I.)/ha+Difenoconazole 37.5 gr (A.I.)/ha • Pyraclostrobin 75 gr (A.I.)/ha+Difenoconazole 37.5 gr (A.I.)/ha+folpet 1000 gr (A.I.)/ha • To test for fungicidal control of Erysiphe necator, the grape plants were sprayed with each of the above treatments. Each of the above treatments was applied from 4 to 10 times according to the disease development, applications occurring 7-14 days after the previous treatment. The treatments were composed of 4 replicates. • Evaluations were performed for the whole duration of the experiment. At each time the incidence and the severity of Erysiphe necator on plants parts was determined.

Sphaerotheca fuliginea = experiment: Example 10: greenhouse control of Sphaerotheca fuliginea on melon plants
Alternaria solani [6] = experiment: Example 6b: greenhouse control of Alternaria solani in potato plants
Phytophthora infestans = settings: tomato
Venturia inaequalis [7] = experiment: Example 2: greenhouse control of apple scab, phthalimides with cyprodinil and/or fluxapyroxad; settings: Table 6; captan or folpet 1200, cyprodinil 300, fluxapyroxad 90 gAI/ha; one spray 1 day before inoculation
[8] = Table 2, one spray 1 day before inoculation, severity based
[9] = Table 4, one spray 1 day before inoculation

## O=C(NCCc1ncc(C(F)(F)F)cc1Cl)c1ccccc1C(F)(F)F [FLUOPYRAM, fluopyram]
Venturia inaequalis [1]; [8]
  % control observed on leaves 26 DAYS after the application: 75.3%
Venturia inaequalis [1]; Table 3
  % control observed on leaves 19 DAYS after the application: 83.9%
  % control observed on leaves 26 DAYS after the application: 75.3%
  Var % (19/26 DAYS): −10.3%
Venturia inaequalis [2]; [9]
  % control observed on leaves 26 DAYS after the application: 76.2%
Venturia inaequalis [2]; Table 5
  % control observed on leaves 19 DAYS after the application: 85.1%
  % control observed on leaves 26 DAYS after the application: 76.2%
  Var % (19/26 DAYS): −10.5%
[3]
  effect of FOLPET on the efficacy of the systemic product, treated area: efficacy gains
  effect of FOLPET on the efficacy of the systemic product, untreated area: not statistically significant

## CC(C)(C)C(O)(CCc1ccc(Cl)cc1)Cn1cncn1 (stereo not drawn) [TEBUCONAZOLE, tebuconazole]
Alternaria solani [4]
  % control observed on leaves 20 DAYS after the application: 64.3%
Venturia inaequalis [1]; [8]
  % control observed on leaves 26 DAYS after the application: 77.4%
Venturia inaequalis [1]; Table 3
  % control observed on leaves 19 DAYS after the application: 82.5%
  % control observed on leaves 26 DAYS after the application: 77.4%
  Var % (19/26 DAYS): −6.2%
Venturia inaequalis [2]; [9]
  % control observed on leaves 26 DAYS after the application: 78.2%
Venturia inaequalis [2]; Table 5
  % control observed on leaves 19 DAYS after the application: 83.8%
  % control observed on leaves 26 DAYS after the application: 78.2%
  Var % (19/26 DAYS): −6.7%

## N#Cc1c[nH]cc1-c1cccc2c1OC(F)(F)O2 [FLUDIOXONIL]
Botrytis cinerea; rate 150 gr (A.I.)/ha
  % control observed on leaves 21 DAYS after the application: 40.8%

## O=C(NCc1ncc(C(F)(F)F)cc1Cl)c1c(Cl)cccc1Cl [FLUOPICOLIDE]
Plasmopara viticola; rate 75.0 gr (A.I.)/ha
  % control observed on leaves 21 DAYS after the application: 74.5%

## Cc1cc(C2CC2)nc(Nc2ccccc2)n1 [CYPRODNIL]
Botrytis cinerea; rate 150 gr (A.I.)/ha
  % control observed on leaves 21 DAYS after the application: 51.8%

## CO/C=C(/C(=O)OC)c1ccccc1Oc1cc(Oc2ccccc2C#N)ncn1 [AZOXYSTROBIN, azoxystrobin]
Alternaria solani [5]; Table 10, captan or folpet 1200, azoxystrobin 120, fluxapyroxad 75 gAI/ha, one spray 1 day before inoculation
  % control observed on leaves 20 DAYS after the application: 51.4%
Alternaria solani [5]; rate 120 gAI/ha, tomato
  % control observed on leaves 14 DAYS after the application: 71%
  % control observed on leaves 20 DAYS after the application: 51.4%
  Var % (14/20 DAYS): −27.6%
Erysiphe necator; rate 90 gr (A.I.)/ha
  % control observed on leaves 21 DAYS after the application: 65.9%
Sphaerotheca fuliginea; rate 250 gr (A.I.)/ha
  % control observed on leaves 21 DAYS after the application: 51.0%

## Cn1cc(C(=O)Nc2ccc(F)cc2-c2ccc(Cl)c(Cl)c2)c(C(F)F)n1 [BIXAFEN, bixafen]
[3]
  effect of FOLPET on the efficacy of the systemic product, treated and untreated areas: greatly improved efficacy
[3]; without FOLPET
  protection of the untreated area by the formulation alone: incapable of protecting the areas not treated

## Cc1cc(OC(C)C)ccc1C(=O)C(C)(C)NC(=O)c1sccc1C [ISOFETAMID]
Botrytis cinerea; rate 400 gr (A.I.)/ha
  % control observed on leaves 21 DAYS after the application: 74.0%

## CC1(C(=O)Nc2ccc(O)c(Cl)c2Cl)CCCCC1 [FENHEXAMID]
Botrytis cinerea; rate 500 gr (A.I.)/ha
  % control observed on leaves 21 DAYS after the application: 74.2%

## COC(=O)N(OC)c1ccccc1COc1ccn(-c2ccc(Cl)cc2)n1 [PYRACLOSTROBIN]
Erysiphe necator; rate 75 gr (A.I.)/ha
  % control observed on leaves 21 DAYS after the application: 70.7%
Botrytis cinerea; rate 75 gr (A.I.)/ha
  % control observed on leaves 21 DAYS after the application: 66.7%
Sphaerotheca fuliginea; rate 100 gr (A.I.)/ha
  % control observed on leaves 21 DAYS after the application: 60.1%

## C#CCOc1ccc(CCNC(=O)C(OCC#C)c2ccc(Cl)cc2)cc1OC (stereo not drawn) [MANDIPROPAMIDE]
Alternaria solani [6]; rate 150 gr (A.I.)/ha
  % control observed on leaves 21 DAYS after the application: 62.5%
Plasmopara viticola; rate 112.5 gr (A.I.)/ha
  % control observed on leaves 21 DAYS after the application: 74.1%
Phytophthora infestans; rate 150 gr (A.I.)/ha
  % control observed on leaves 14 DAYS after the application: 65.7%

## Cc1cc(C2CC2)nc(Nc2ccccc2)n1 [CYPRODINIL, cyprodinil]
Venturia inaequalis [7]
  % control observed on leaves 26 DAYS after the application: 62.7%

## CC(C)CC(C)c1sccc1NC(=O)c1cn(C)nc1C(F)(F)F (stereo not drawn) [PENTHIOPYRAD, penthiopyrad]
[3]
  effect of FOLPET on the efficacy of the systemic product, treated and untreated areas: a significant effect was observed only for the 28-day timing

## CCCN(CCOc1c(Cl)cc(Cl)cc1Cl)C(=O)n1ccnc1 [PROCHLORAZ, prochloraz]
[3]
  effect of FOLPET on the efficacy of the systemic product, treated area: numerically appreciated but not significantly improved
  effect of FOLPET on the efficacy of the systemic product, untreated area: significant positive effect

## Cc1cc(C(F)(F)F)nn1CC(=O)N1CCC(c2nc(C3=NOC(c4c(F)cccc4F)C3)cs2)CC1 (stereo not drawn) [OXATHIAPIPROLIN]
Alternaria solani [6]; rate 15 gr (A.I.)/ha
  % control observed on leaves 21 DAYS after the application: 63.6%
Plasmopara viticola; rate 22.5 gr (A.I.)/ha
  % control observed on leaves 21 DAYS after the application: 86.7%
Phytophthora infestans; rate 15 gr (A.I.)/ha
  % control observed on leaves 14 DAYS after the application: 78.6%

## O=[N+]([O-])c1cc(C(F)(F)F)c(Cl)c([N+](=O)[O-])c1Nc1ncc(C(F)(F)F)cc1Cl [FLUAZINAM]
Botrytis cinerea; rate 500 gr (A.I.)/ha
  % control observed on leaves 21 DAYS after the application: 68.5%

## CCNC(=O)NC(=O)/C(C#N)=N/OC [CYMOXANIL]
Alternaria solani [6]; rate 150 gr (A.I.)/ha
  % control observed on leaves 21 DAYS after the application: 68.4%
Plasmopara viticola; rate 126.0 gr (A.I.)/ha
  % control observed on leaves 21 DAYS after the application: 73.6%
Phytophthora infestans; rate 150 gr (A.I.)/ha
  % control observed on leaves 14 DAYS after the application: 68.5%

## CCCCCCCCc1c(CC)nc2ncnn2c1N [AMETOCRADIN]
Alternaria solani [6]; rate 240 gr (A.I.)/ha
  % control observed on leaves 21 DAYS after the application: 62.0%
Plasmopara viticola; rate 225.0 gr (A.I.)/ha
  % control observed on leaves 21 DAYS after the application: 78.8%
Phytophthora infestans; rate 240 gr (A.I.)/ha
  % control observed on leaves 14 DAYS after the application: 68.0%

## CCC(C)(NC(=O)c1cc(Cl)c(C)c(Cl)c1)C(=O)CCl (stereo not drawn) [ZOXAMIDE]
Alternaria solani [6]; rate 180 gr (A.I.)/ha
  % control observed on leaves 21 DAYS after the application: 62.9%
Plasmopara viticola; rate 135.0 gr (A.I.)/ha
  % control observed on leaves 21 DAYS after the application: 74.7%
Phytophthora infestans; rate 180 gr (A.I.)/ha
  % control observed on leaves 14 DAYS after the application: 74.4%

## CC1COC(Cn2cncn2)(c2ccc(Oc3ccc(Cl)cc3)cc2Cl)O1 (stereo not drawn) [DIFENOCONAZOLE, difenoconazole]
Alternaria solani [4]
  % control observed on leaves 20 DAYS after the application: 60.6%
Erysiphe necator; rate 37.5 gr (A.I.)/ha
  % control observed on leaves 21 DAYS after the application: 68.9%
Sphaerotheca fuliginea; rate 50 gr (A.I.)/ha
  % control observed on leaves 21 DAYS after the application: 49.4%
Venturia inaequalis [1]; [8]
  % control observed on leaves 26 DAYS after the application: 71.8%
Venturia inaequalis [1]; Table 3
  % control observed on leaves 19 DAYS after the application: 77.9%
  % control observed on leaves 26 DAYS after the application: 71.8%
  Var % (19/26 DAYS): −7.8%
Venturia inaequalis [2]; [9]
  % control observed on leaves 26 DAYS after the application: 73.1%
Venturia inaequalis [2]; Table 5
  % control observed on leaves 19 DAYS after the application: 79.5%
  % control observed on leaves 26 DAYS after the application: 73.1%
  Var % (19/26 DAYS): −8.1%
